# Assay results as given in patent US20250127772A1, “SPECIFIC TETRADENTATE COPPER CHELATORS FOR THE TREATMENT OF WILSON'S DISEASE” (GUANGDONG UNIVERSITY OF TECHNOLOGY, priority 2023, published 2025).
# Columns and labels:
# hepatic DEPs = assay: Hepatic differentially expressed proteins (TMT LC-MS/MS) in treated TX mice; assay type: in vivo, mouse
# Protocol: (§1) In order to confirm the positive role of TDMQ20 in the treatment of TX mice, we performed proteomic experiments. Samples from three mice of each group were depicted in Table 1, The samples were treated with TMT (Tandem Mass Tag) and detected by quantitative LC-MS/MS, then the data were analyzed with ProteomeDiscoverer 2.4.1.15 (ThermoFisher Scientific). Confidence proteins were screened according to the criteria of Sequest program score greater than 0 and number of unique peptides greater than or equal to 1, and blank values were removed.
# Other differentially expressed proteins (DEPs) were screened at p<0.05 in the WD mouse group compared to the control group. […] Results are reported in Table 3 and 4 for hepatic and serum proteins, respectively.
# ceruloplasmin (CP) = assay: Serum ceruloplasmin by TMT LC-MS/MS in treated TX mice; assay type: in vivo, mouse; conditions: for CP level compared with control mice: serum of TX mice
# Protocol: as §1
# The concentration of ceruloplasmin (CP), that contains the most part of blood copper, was measured by TMT LC-MS/MS in the serum of WD mice. […] The CP level was equal (25 mg/kg) or higher (50 mg/kg) than that observed in control mice. Since the level of CP is considered as a significant parameter in the clinical control of human Wilson's disease, the reversal of the CP impairment upon treatment by TDMQ20 confirms that this drug has a very good profile as drug-candidate for the treatment of Wilson's disease.
# [1] = liver, 25 mg/kg/day, DEP down-regulated in WD
# [2] = liver, 25 mg/kg/day, DEP up-regulated in WD
# [3] = liver, 50 mg/kg/day, DEP down-regulated in WD
# [4] = liver, 50 mg/kg/day, DEP up-regulated in WD
structure (smiles),measurement,setting,value
CN(C)CCNCCc1ccc2c(Cl)cc(Cl)c(N)c2n1 [TDMQ20],hepatic DEPs TDMQ20-H/control ratio,hepatic DEPs; TDMQ20 50 mg/kg,~1
same,hepatic DEPs after treatment,hepatic DEPs; TDMQ20 at 25 or 50 mg/kg,reversed to normal values
same,TDMQ20-M/control fold change: 2-Oxo-4-hydroxy-4-caboxy-5-ureidoimidazoline decarboxylase (Urad),hepatic DEPs; [1],0.93
same,TDMQ20-M/control fold change: ATP-citrate synthase (Acly),hepatic DEPs; [1],0.86
same,TDMQ20-M/control fold change: Alcohol deshydrogenase class-3 (Adh5),hepatic DEPs; [1],0.89
same,"TDMQ20-M/control fold change: Aspartate-tRNA ligase, cytoplasmic (Dars1)",hepatic DEPs; [1],1.03
same,TDMQ20-M/control fold change: Charged multivesicular body protein 7 (Chmp7),hepatic DEPs; [1],1.04
same,TDMQ20-M/control fold change: Cytochrome P450 2C70 (Cyp2c70),hepatic DEPs; [1],0.85
same,TDMQ20-M/control fold change: Desmin (Des),hepatic DEPs; [1],0.88
same,TDMQ20-M/control fold change: Mesencephalic astrocyte-derived neurotrophic factor (Manf),hepatic DEPs; [1],0.94
same,TDMQ20-M/control fold change: Nicotinamide/nicotinic acid mononucleotide adenylyltransferase 3 (Nmnat3),hepatic DEPs; [1],0.97
same,TDMQ20-M/control fold change: Progranulin (Gm),hepatic DEPs; [1],1.05
same,TDMQ20-M/control fold change: Putative phospholipase B-like 2 (Plbd2),hepatic DEPs; [1],0.98
same,TDMQ20-M/control fold change: Pyridoxine-5′-phosphate oxidase (Pnpo),hepatic DEPs; [1],1.01
same,TDMQ20-M/control fold change: Ribosome biogenesis protein BOP1 (Bop1),hepatic DEPs; [1],1.08
same,TDMQ20-M/control fold change: Triosephosphate isomerase (Tpi1),hepatic DEPs; [1],0.85
same,TDMQ20-M/control fold change: 28 kDa heat- and acid-stable phosphoprotein (Pdap1),hepatic DEPs; [2],1.15
same,TDMQ20-M/control fold change: AN1-type zinc finger protein 6 (Zfand6),hepatic DEPs; [2],1.09
same,TDMQ20-M/control fold change: ATP synthase subunit a (Mtatp6),hepatic DEPs; [2],1.04
same,TDMQ20-M/control fold change: Afadin (Afdn),hepatic DEPs; [2],1.07
same,"TDMQ20-M/control fold change: Agmatinase, mitochondrial (Agmat)",hepatic DEPs; [2],1.15
same,TDMQ20-M/control fold change: Alanine glyoxylate aminotransferase (Agxt),hepatic DEPs; [2],1.18
same,TDMQ20-M/control fold change: Alpha-1-antitrypsin-1-2 (Serpina1b),hepatic DEPs; [2],1.09
same,TDMQ20-M/control fold change: Cyclin-dependent kinase inhibitor 1B (Cdkn1b),hepatic DEPs; [2],1.13
same,TDMQ20-M/control fold change: Epsin-1 (Epn1),hepatic DEPs; [2],1.05
same,TDMQ20-M/control fold change: Exosome complex exonuclease RRP44 (Dis3),hepatic DEPs; [2],1.16
same,TDMQ20-M/control fold change: Histone H2A.V,hepatic DEPs; [2],1.14
same,TDMQ20-M/control fold change: Histone H2B type 1-H (H2bc9),hepatic DEPs; [2],1.05
same,TDMQ20-M/control fold change: Histone H4 (H4c16),hepatic DEPs; [2],1.12
same,TDMQ20-M/control fold change: Mitochondrial dicarboxylase carrier (Slc25a10),hepatic DEPs; [2],1.10
same,TDMQ20-M/control fold change: Mitochondrial outer membrane protein SLC25A46 (Slc25a46),hepatic DEPs; [2],1.10
same,"TDMQ20-M/control fold change: NADPH adrenodoxin oxidoreductase, mitochondrial (Fdxr)",hepatic DEPs; [2],1.10
same,TDMQ20-M/control fold change: OCIA domain-containing protein 1 (Ociad1),hepatic DEPs; [2],1.14
same,TDMQ20-M/control fold change: PRKC apoptosis WT1 regulator protein (Pawr),hepatic DEPs; [2],1.10
same,TDMQ20-M/control fold change: Peroxisomal membrane protein-2 (Pxmp2),hepatic DEPs; [2],1.14
same,TDMQ20-M/control fold change: Probable ATP-dependent RNA helicase DDX17 (Ddx17),hepatic DEPs; [2],1.01
same,TDMQ20-M/control fold change: Protein Hook homolog 1 (Hook1),hepatic DEPs; [2],1.07
same,TDMQ20-M/control fold change: Protein LYRIC (Mtdh),hepatic DEPs; [2],0.85
same,TDMQ20-M/control fold change: Protein scribble homolog (Scrib),hepatic DEPs; [2],1.07
same,TDMQ20-M/control fold change: Protein-glutamine gamma-glutamyltransferase K (Tgm1),hepatic DEPs; [2],0.90
same,TDMQ20-M/control fold change: Regucalcin (Rgn),hepatic DEPs; [2],1.07
same,TDMQ20-M/control fold change: Ribonuclease P protein subunit p30 (Rpp30),hepatic DEPs; [2],1.20
same,TDMQ20-M/control fold change: SET nuclear proto-oncogene (Set),hepatic DEPs; [2],0.95
same,TDMQ20-M/control fold change: Sideroflexin-5 (Sfxn5),hepatic DEPs; [2],1.06
same,TDMQ20-M/control fold change: Zinc transporter 10 (Slc30a10),hepatic DEPs; [2],0.94
same,TDMQ20-H/control fold change: 2-Oxo-4-hydroxy-4-caboxy-5-ureidoimidazoline decarboxylase (Urad),hepatic DEPs; [3],0.96
same,TDMQ20-H/control fold change: ATP-citrate synthase (Acly),hepatic DEPs; [3],0.97
same,TDMQ20-H/control fold change: Alcohol deshydrogenase class-3 (Adh5),hepatic DEPs; [3],0.86
same,"TDMQ20-H/control fold change: Aspartate-tRNA ligase, cytoplasmic (Dars1)",hepatic DEPs; [3],1.13
same,TDMQ20-H/control fold change: Charged multivesicular body protein 7 (Chmp7),hepatic DEPs; [3],0.94
same,TDMQ20-H/control fold change: Cytochrome P450 2C70 (Cyp2c70),hepatic DEPs; [3],0.88
same,TDMQ20-H/control fold change: Desmin (Des),hepatic DEPs; [3],0.88
same,TDMQ20-H/control fold change: Mesencephalic astrocyte-derived neurotrophic factor (Manf),hepatic DEPs; [3],0.91
same,TDMQ20-H/control fold change: Nicotinamide/nicotinic acid mononucleotide adenylyltransferase 3 (Nmnat3),hepatic DEPs; [3],0.94
same,TDMQ20-H/control fold change: Progranulin (Gm),hepatic DEPs; [3],1.04
same,TDMQ20-H/control fold change: Putative phospholipase B-like 2 (Plbd2),hepatic DEPs; [3],0.99
same,TDMQ20-H/control fold change: Pyridoxine-5′-phosphate oxidase (Pnpo),hepatic DEPs; [3],0.90
same,TDMQ20-H/control fold change: Ribosome biogenesis protein BOP1 (Bop1),hepatic DEPs; [3],0.97
same,TDMQ20-H/control fold change: Triosephosphate isomerase (Tpi1),hepatic DEPs; [3],0.90
same,TDMQ20-H/control fold change: 28 kDa heat- and acid-stable phosphoprotein (Pdap1),hepatic DEPs; [4],1.10
same,TDMQ20-H/control fold change: AN1-type zinc finger protein 6 (Zfand6),hepatic DEPs; [4],0.91
same,TDMQ20-H/control fold change: ATP synthase subunit a (Mtatp6),hepatic DEPs; [4],0.91
same,TDMQ20-H/control fold change: Afadin (Afdn),hepatic DEPs; [4],1.05
same,"TDMQ20-H/control fold change: Agmatinase, mitochondrial (Agmat)",hepatic DEPs; [4],1.01
same,TDMQ20-H/control fold change: Alanine glyoxylate aminotransferase (Agxt),hepatic DEPs; [4],1.03
same,TDMQ20-H/control fold change: Alpha-1-antitrypsin-1-2 (Serpina1b),hepatic DEPs; [4],1.04
same,TDMQ20-H/control fold change: Cyclin-dependent kinase inhibitor 1B (Cdkn1b),hepatic DEPs; [4],1.10
same,TDMQ20-H/control fold change: Epsin-1 (Epn1),hepatic DEPs; [4],0.93
same,TDMQ20-H/control fold change: Exosome complex exonuclease RRP44 (Dis3),hepatic DEPs; [4],1.00
same,TDMQ20-H/control fold change: Histone H2A.V,hepatic DEPs; [4],1.19
same,TDMQ20-H/control fold change: Histone H2B type 1-H (H2bc9),hepatic DEPs; [4],1.07
same,TDMQ20-H/control fold change: Histone H4 (H4c16),hepatic DEPs; [4],1.15
same,TDMQ20-H/control fold change: Mitochondrial dicarboxylase carrier (Slc25a10),hepatic DEPs; [4],1.00
same,TDMQ20-H/control fold change: Mitochondrial outer membrane protein SLC25A46 (Slc25a46),hepatic DEPs; [4],1.11
same,"TDMQ20-H/control fold change: NADPH adrenodoxin oxidoreductase, mitochondrial (Fdxr)",hepatic DEPs; [4],1.04
same,TDMQ20-H/control fold change: OCIA domain-containing protein 1 (Ociad1),hepatic DEPs; [4],1.08
same,TDMQ20-H/control fold change: PRKC apoptosis WT1 regulator protein (Pawr),hepatic DEPs; [4],1.18
same,TDMQ20-H/control fold change: Peroxisomal membrane protein-2 (Pxmp2),hepatic DEPs; [4],0.98
same,TDMQ20-H/control fold change: Probable ATP-dependent RNA helicase DDX17 (Ddx17),hepatic DEPs; [4],1.11
same,TDMQ20-H/control fold change: Protein Hook homolog 1 (Hook1),hepatic DEPs; [4],0.94
same,TDMQ20-H/control fold change: Protein LYRIC (Mtdh),hepatic DEPs; [4],1.06
same,TDMQ20-H/control fold change: Protein scribble homolog (Scrib),hepatic DEPs; [4],1.09
same,TDMQ20-H/control fold change: Protein-glutamine gamma-glutamyltransferase K (Tgm1),hepatic DEPs; [4],0.84
same,TDMQ20-H/control fold change: Regucalcin (Rgn),hepatic DEPs; [4],0.91
same,TDMQ20-H/control fold change: Ribonuclease P protein subunit p30 (Rpp30),hepatic DEPs; [4],1.20
same,TDMQ20-H/control fold change: SET nuclear proto-oncogene (Set),hepatic DEPs; [4],1.01
same,TDMQ20-H/control fold change: Sideroflexin-5 (Sfxn5),hepatic DEPs; [4],0.96
same,TDMQ20-H/control fold change: Zinc transporter 10 (Slc30a10),hepatic DEPs; [4],0.9
same,level of CP compared to WD mice,ceruloplasmin (CP); TDMQ20 at 25 or 50 mg/kg,significantly increased
same,CP level compared with control mice,ceruloplasmin (CP); TDMQ20 25 mg/kg,equal
same,CP level compared with control mice,ceruloplasmin (CP); TDMQ20 50 mg/kg,higher
